The text below walks through data of ChEMBL document CHEMBL5512633, “Hit-to-lead optimization of 2-aminoquinazolines as anti-microbial agents against Leishmania donovani” (Eur J Med Chem, 2024).

The test system of data set [1] is Leishmania donovani. Put plainly: Antileishmanial activity against Leishmania donovani. It counts as functional, organism-based.
Data set [2] is described as follows: Metabolic stability in mouse liver microsomes assessed as hepatic blood flow preincubated for 10 mins and measured after 60 mins by LC-MS/MS analysis. In kind it is ADME, Microsome. The settings on record: read-out: QH. A general note: Liver microsomes are vesicles of endoplasmic reticulum, rich in cytochrome P450 enzymes.
In data set [3] the test system is Leishmania donovani. In words: Antileishmanial activity against Leishmania donovani MHOM/IN/1983/AG83 axenic amastigotes assessed as inhibition of growth incubated for 48 hrs by flow cytometric analysis. In kind it is functional, organism-based. The settings on record: MHOM/IN/1983/AG83, 48 h.
A short description of data set [4]: Lipophilicity, logD of compound in 1-octanol and phosphate buffer at pH 7.4 by HPLC-UV analysis. In kind it is physicochemical. To be noted: 1-octanol/phosphate buffer.
Data set [5] can be described thus: Stability in human plasma assessed as compound remaining measured after 2 hrs by LC-MS/MS analysis. In kind it is ADME, cell-free. To be noted: read-out: Stability.
Data set [6] is described as follows: Cytotoxicity against human HepG2 cells incubated for 48 hrs by PI staining based flow cytometric analysis. It counts as toxicity, cell-based. In general terms: In flow cytometry, cells or beads pass a laser one at a time.
The nature of data set [7]: Selectivity index, ratio of CC50 for cytotoxicity against human HepG2 cells to IC50 for antileishmanial activity against Leishmania donovani MHOM/IN/1983/AG83 axenic amastigotes. In kind it is toxicity, cell-based. To be noted: read-out: Ratio CC50/IC50.
A short description of data set [8]: Stability in mouse plasma assessed as compound remaining measured after 2 hrs by LC-MS/MS analysis. It counts as ADME, cell-free. To be noted: read-out: Stability.
The nature of data set [9]: Cytotoxicity against human THP-1 cells incubated for 72 hrs by DAPI staining based analysis. It counts as toxicity, cell-based.
Data set [10] can be described thus: Cytotoxicity against human HepG2 cells assessed as inhibition of cell growth at 80 uM incubated for 48 hrs by PI staining based flow cytometric analysis relative to control. In kind it is toxicity.
Data set [11] can be described thus: Metabolic stability in human liver microsomes assessed as hepatic blood flow preincubated for 10 mins and measured after 60 mins by LC-MS/MS analysis. In kind it is ADME, Microsome. The settings on record: read-out: QH.
Data set [12] in a line: Metabolic stability in mouse liver microsomes assessed as half-life preincubated for 10 mins and measured after 60 mins by LC-MS/MS analysis. It counts as ADME, Microsome.
The nature of data set [13]: Metabolic stability in human liver microsomes assessed as half-life preincubated for 10 mins and measured after 60 mins by LC-MS/MS analysis. In kind it is ADME, Microsome.
In data set [14] the test system is Leishmania donovani. Put plainly: Antileishmanial activity against Leishmania donovani MHOM/IN/1983/AG83 axenic amastigotes assessed as inhibition of growth at 20 uM incubated for 48 hrs by flow cytometric analysis relative to control. It counts as functional.

Turning to `COc1ccc(-c2cnc(NC(=O)c3cc(-c4ccccn4)n[nH]3)n2C)cc1`, the IC50 with Leishmania donovani [1] stood at 1 µM.
Regarding `COc1cc2c(N3CCCCC3)nc(NC(=O)c3ccc(F)cc3)nc2cc1OC1CCCC1`, the hepatic extraction ratio at 1 h in [2] is 0.494; in data set [11], 0.575. Besides, the IC50 in the data set on Leishmania donovani [3] was 5.43 µM. In data set [4], this compound returned a logD of 4.64. For the same compound, the results for the remaining at 2 h in data set [5] and in data set [8] were 61% and 44.3%, respectively. Also, the CC50 at 48 h in data set [6] is more than 80 µM. The selectivity ratio in data set [7] was more than 15. This compound also had a half-maximal cytotoxic concentration (CC50) at 72 h in [9] of 89.5 µM. Further, the inhibition at 48 h, 80 µM in data set [10] amounted to 10.8%. The half-life in data set [12] stood at 19.4 min; in data set [13] it was 23.8 min.
Take `Cc1cc(N2CCc3ccccc3C2)nc(Nc2ccc(S(=O)(=O)N3CCOCC3)cc2)n1`: in the data set with Leishmania donovani [1], the IC50 worked out at 5 µM.
`COc1cc2c(N3CCCCC3)nc(Nc3ccc(C(F)(F)F)cc3)nc2cc1OC1CCCC1` returned a CC50 at 72 h in data set [9] of more than 50 µM. The inhibition at 20 µM with Leishmania donovani [14] is approximately 35.3%.
Take `O=C1CN(C(=O)c2cccc(Nc3ncc(-c4ccc5c(c4)OCO5)cn3)c2)CCN1`: in the data set with Leishmania donovani [1], the IC50 worked out at 5 µM.
Turning to `COc1ccc(-c2cnc(NC(=O)c3ccc(F)cc3)n2C)cc1`, the IC50 in the data set on Leishmania donovani [3] was determined as 15 µM; in the data set with Leishmania donovani [1] it was 1.2 µM. Also, the CC50 at 72 h in data set [9] was more than 50 µM.
In turn, `COc1cc2c(N3CCCCC3)nc(NCc3cccc(Cl)c3)nc2cc1OC1CCCC1` gave a CC50 at 72 h in data set [9] of 43.8 µM. Further, the inhibition at 20 µM in the data set with Leishmania donovani [14] was approximately 12%.
Regarding `COc1cc2c(N3CCCCC3)nc(NCc3cccc(F)c3)nc2cc1OC1CCCC1`, the CC50 at 72 h in data set [9] is more than 3 µM. Besides, in the data set on Leishmania donovani [14], the inhibition at 20 µM is approximately 40.8%.

Broadly, the IC50 is the concentration that gives 50% inhibition. In general, logD refers to the decadic logarithm of the distribution of all forms, ionised or not, between an organic phase and buffer at a given pH. Read a high logD as a more lipophilic compound. The term CC50 denotes the concentration giving 50% cytotoxicity. High values mean better tolerance by the cells, low ones harm at low concentration. What is called inhibition is how much of the control response was suppressed. As usually defined, the half-life is the time in which the quantity being followed falls by half.
